# Assay results: US6814966B1, “Methods for treating glaucoma” (Pharmacia Corporation, priority 2000, dated 2004)
# Test system: retinal ganglion cells in co-cultures with glial cells
# Assay: TUNEL apoptosis of retinal ganglion cells in co-cultures with glial cells under stress conditions
# Format: cell-based, rat
# Conditions: for decrease of rate of positive TUNEL: antibody 10 ug/ml, 1400W 2.5 uM
# Method: Retinal ganglion cell cultures. Primary cultures of retinal ganglion cells were derived from newborn rat retinas using a protocol similar to that recently described^70. All experiments were performed in accordance with the ARVO Statement for the Use of Animals in Ophthalmic and Vision Research and were approved by The Animal Studies Committee of Washington University. Five to seven days old Sprague-Dawley rats were anesthetized and their eyes were enucleated. The eyes were rinsed with CO2-independent culture medium (Gibco, Grand Island, N.Y.) and retinas were mechanically dissected under a microscope. To prepare retinal cell suspensions, tissues were dissociated in Eagles's minimum essential medium containing 20 U/ml papain, 1 mM L-cystein 0.5 mM EDTA and DNase (0.005%) (Worthington, Lakewood, N.J.) at 37° C. for 40 minutes. Then, retinas were rinsed in an inhibitor solution containing Eagle's minimum essential medium, ovomucoid (0.2%) (US Biological, Swampscott, Mass.), DNAase (0.04%) and bovine serum albumin (0.1%) (Sigma, St. Louis, Mo.). At the end of treatment period, tissues were triturated through a 1 ml plastic pipette to yield a suspension of single cells. The retinal cells were spun at 400 g for 10 minutes, resuspended in Eagle's minimum essential medium containing bovine serum albumin (0.05%) and incubated in a tissue culture incubator until their immediate use for subsequent separation by immunomagnetic selection^71,72.
# Immunomagnetic selection of the retinal ganglion cells was performed using magnetic, 2.8±0.2 um diameter, polystyrene beads coated with biotinylated rat monoclonal antibody against mouse IgG1 (Dynal, Oslo, Norway) in a two step process. In the first step, after washing with phosphate buffered saline solution containing 0.1% bovine serum albumin, 1×10^7 beads/ml were added to monoclonal antibody against macrophage surface antigens (100 ug/ml) (Sigma). After incubation at room temperature on a rotator for 30 minutes, beads were washed using a specially designed magnet (Dynal). […]
smiles,measurement,setting,value
"CC(=N)NCc1cccc(CN)c1.Cl.Cl [1400W, N-(3-(aminomethyl)benzyl)acetamidine. dihydrochloride]",decrease of rate of positive TUNEL,co-cultures under elevated hydrostatic pressure,approximately 35%
same,decrease of rate of positive TUNEL,co-cultures under simulated ischemia,approximately 50%
same,attenuation of retinal ganglion cell apoptosis,"summary statement, simulated ischemia and elevated hydrostatic pressure, stressor not specified",~50%
